According to patent US10059687B2, “Histone demethylase inhibitors” (CELGENE QUANTICEL RESEARCH, INC., priority 2015, dated 2018):

Columns and labels:
Jarid1B = Jarid1B (Homo sapiens (Human), UniProt Q9UGL1); experiment: In vitro enzyme inhibition assay for Jarid1B activity (TR-FRET); format: biochemical
Protocol: The ability of test compounds to inhibit the activity of Jarid1B was determined in 384-well plate format under the following reaction conditions: 0.8 nM Jarid1B, 300 nM H3K4me3-biotin labeled peptide (Anaspec cat #64357), 2 μM alpha-ketoglutaric acid in assay buffer of 50 mM HEPES, pH7.3, 0.005% Brij35, 0.5 mM TCEP, 0.2 mg/ml BSA, 50 μM sodium L-ascorbate, and 2 μM ammonium iron(II) sulfate. Reaction product was determined quantitatively by TR-FRET after the addition of detection reagent Phycolink Streptavidin-allophycocyanin (Prozyme) and Europium-anti-H3K4me or -H3K4me2 antibody (PerkinElmer) in the presence of 5 mM EDTA in LANCE detection buffer (PerkinElmer) at a final concentration of 25 nM and 1 nM, respectively.
(§1) The assay reaction was initiated by the following: 2 μl of the mixture of 900 nM H3K4me3-biotin labeled peptide and 6 μM alpha-ketoglutaric acid with 2 μl of 11-point serial diluted inhibitor in 3% DMSO was added to each well of the plate, followed by the addition of 2 μl of 2.4 nM Jarid1B to initiate the reaction. The reaction mixture was incubated at RT for 30 min, and terminated by the addition of 6 μl of 5 mM EDTA in LANCE detection buffer containing 50 nM Phycolink Streptavidin-allophycocyanin and 2 nM Europium-anti-H3K4me/H3K4me2 antibody. Plates were read by EnVisionMultilabel Reader in TR-FRET mode (excitation at 320 nm, emission at 615 nm and 665 nm) after 1 hr incubation at RT. A ratio was calculated (665/615) for each well and fitted to determine inhibition constant (IC50).

JMJD3 = JMJD3 (Homo sapiens, UniProt O15054); experiment: In vitro enzyme inhibition assay for JMJD3 activity (TR-FRET); format: biochemical
Protocol: This assay determines the ability of a test compound to inhibit JMJD3 demethylase activity. Baculovirus expressed JMJD3 (GenBank Accession #NM-001080424, AA1043-end) was purchased from BPS Bioscience (Cat#50115).
The enzymatic assay of JMJD3 activity is based upon Time Resolved-Fluorescence Resonance Energy Transfer (TR-FRET) detection. The ability of test compounds to inhibit the activity of JMJD3 was determined in 384-well plate format under the following reaction conditions: 5 nM JMJD3, 250 nM H3K27me3-biotin labeled peptide (Anaspec cat #64367), 0.4 to 2 μM α-ketoglutaric acid in assay buffer of 50 mM HEPES, pH7.3, 0.005% Brij35, 0.5 mM TCEP, 0.2 mg/ml BSA, 50 μM sodium L-ascorbate, and 5 μM ammonium iron(II) sulfate. Reaction product was determined quantitatively by TR-FRET after the addition of detection reagent Phycolink Streptavidin-allophycocyanin (Prozyme) and Europium-anti-H3K27me2 antibody (PerkinElmer) in the presence of 5 mM EDTA in LANCE detection buffer (PerkinElmer) at a final concentration of 50 nM and 1 nM, respectively.
The assay reaction was initiated by the following: […] of the mixture of 750 nM H3K27me3-biotin labeled peptide and 1.2 to 6 μM alpha-ketoglutaric acid with 2 μL of 11-point serial diluted inhibitor in 3% DMSO were added to each well of plate, followed by the addition of 2 μl of 15 nM JMJD3 to initiate the reaction. The reaction mixture was incubated at RT for 30 min, and terminated by the addition of 6 μL of 5 mM EDTA in LANCE detection buffer containing 100 nM Phycolink Streptavidin-allophycocyanin and 2 nM Europium-anti-H3K27me2 antibody. Plates were read by EnVisionMultilabel Reader in TR-FRET mode (excitation at 320 nm, emission at 615 nm and 665 nm) after 1 hr incubation at RT. A ratio from the readout of 665/615 was calculated for each well and fitted to determine inhibition constant (IC50).

JMJD2C = JMJD2C (Homo sapiens (Human), UniProt Q9H3R0); experiment: In vitro enzyme inhibition assay for JMJD2C activity (TR-FRET); format: biochemical
Chain of JMJD2C (Q9H3R0 2-372): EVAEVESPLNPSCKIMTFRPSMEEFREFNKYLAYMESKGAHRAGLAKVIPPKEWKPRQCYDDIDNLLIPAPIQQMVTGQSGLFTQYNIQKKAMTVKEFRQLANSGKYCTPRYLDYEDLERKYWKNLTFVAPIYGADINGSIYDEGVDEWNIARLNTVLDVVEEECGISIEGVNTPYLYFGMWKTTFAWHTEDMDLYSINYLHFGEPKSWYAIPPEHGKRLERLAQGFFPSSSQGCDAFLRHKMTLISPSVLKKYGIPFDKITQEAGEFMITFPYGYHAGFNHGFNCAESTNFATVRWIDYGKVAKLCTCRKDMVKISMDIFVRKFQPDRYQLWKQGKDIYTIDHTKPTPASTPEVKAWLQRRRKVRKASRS
Protocol: This assay determines the ability of a test compound to inhibit JMJD2C demethylase activity. Baculovirus expressed JMJD2C (GenBank Accession #BC143571, AA 2-372) was purchased from BPS Bioscience (Cat#50105).
The ability of test compounds to inhibit the activity of JMJD2C was determined in 384-well plate format under the following reaction conditions: 0.3 nM JMJD2C, 300 nM H3K9me3-biotin labeled peptide (Anaspec cat #64360), 2 μM alpha-ketoglutaric acid in assay buffer of 50 mM HEPES, pH7.3, 0.005% Brij35, 0.5 mM TCEP, 0.2 mg/ml BSA, 50 μM sodium L-ascorbate, and 2 μM ammonium iron(II) sulfate. Reaction product was determined quantitatively by TR-FRET after the addition of detection reagent Phycolink Streptavidin-allophycocyanin (Prozyme) and Europium-anti-di-methylated histone H3 lysine 9 (H3K9me2) antibody (PerkinElmer) in the presence of 5 mM EDTA in LANCE detection buffer (PerkinElmer) at a final concentration of 50 nM and 1 nM, respectively.
as §1, with “nM H3K9me3-biotin” for “nM H3K4me3-biotin”, “DMSO were” for “DMSO was”, “of 0.9” for “of 2.4”, “nM JMJD2C” for “nM Jarid1B”, “containing 100” for “containing 50”, “nM Europium-anti-H3K9me2” for “nM Europium-anti-H3K4me/H3K4me2”

[1] = system: esophageal squamous cell carcinoma KYSE-150 cells; experiment: Cellular IC50 in KYSE-150 cells; format: cell-based; conditions: Homo sapiens, one class given per A and B pair
From the text: Table 7 provides IC50 values of various compounds disclosed herein, tested in cellular human esophageal squamous cell carcinoma KYSE-150 cells: […]

[2] = Table 5, one class given per A and B pair
[3] = Table 4, cell gives A/B enantiomer values

Chain of Jarid1B (Q9UGL1 whole entry, species assumed): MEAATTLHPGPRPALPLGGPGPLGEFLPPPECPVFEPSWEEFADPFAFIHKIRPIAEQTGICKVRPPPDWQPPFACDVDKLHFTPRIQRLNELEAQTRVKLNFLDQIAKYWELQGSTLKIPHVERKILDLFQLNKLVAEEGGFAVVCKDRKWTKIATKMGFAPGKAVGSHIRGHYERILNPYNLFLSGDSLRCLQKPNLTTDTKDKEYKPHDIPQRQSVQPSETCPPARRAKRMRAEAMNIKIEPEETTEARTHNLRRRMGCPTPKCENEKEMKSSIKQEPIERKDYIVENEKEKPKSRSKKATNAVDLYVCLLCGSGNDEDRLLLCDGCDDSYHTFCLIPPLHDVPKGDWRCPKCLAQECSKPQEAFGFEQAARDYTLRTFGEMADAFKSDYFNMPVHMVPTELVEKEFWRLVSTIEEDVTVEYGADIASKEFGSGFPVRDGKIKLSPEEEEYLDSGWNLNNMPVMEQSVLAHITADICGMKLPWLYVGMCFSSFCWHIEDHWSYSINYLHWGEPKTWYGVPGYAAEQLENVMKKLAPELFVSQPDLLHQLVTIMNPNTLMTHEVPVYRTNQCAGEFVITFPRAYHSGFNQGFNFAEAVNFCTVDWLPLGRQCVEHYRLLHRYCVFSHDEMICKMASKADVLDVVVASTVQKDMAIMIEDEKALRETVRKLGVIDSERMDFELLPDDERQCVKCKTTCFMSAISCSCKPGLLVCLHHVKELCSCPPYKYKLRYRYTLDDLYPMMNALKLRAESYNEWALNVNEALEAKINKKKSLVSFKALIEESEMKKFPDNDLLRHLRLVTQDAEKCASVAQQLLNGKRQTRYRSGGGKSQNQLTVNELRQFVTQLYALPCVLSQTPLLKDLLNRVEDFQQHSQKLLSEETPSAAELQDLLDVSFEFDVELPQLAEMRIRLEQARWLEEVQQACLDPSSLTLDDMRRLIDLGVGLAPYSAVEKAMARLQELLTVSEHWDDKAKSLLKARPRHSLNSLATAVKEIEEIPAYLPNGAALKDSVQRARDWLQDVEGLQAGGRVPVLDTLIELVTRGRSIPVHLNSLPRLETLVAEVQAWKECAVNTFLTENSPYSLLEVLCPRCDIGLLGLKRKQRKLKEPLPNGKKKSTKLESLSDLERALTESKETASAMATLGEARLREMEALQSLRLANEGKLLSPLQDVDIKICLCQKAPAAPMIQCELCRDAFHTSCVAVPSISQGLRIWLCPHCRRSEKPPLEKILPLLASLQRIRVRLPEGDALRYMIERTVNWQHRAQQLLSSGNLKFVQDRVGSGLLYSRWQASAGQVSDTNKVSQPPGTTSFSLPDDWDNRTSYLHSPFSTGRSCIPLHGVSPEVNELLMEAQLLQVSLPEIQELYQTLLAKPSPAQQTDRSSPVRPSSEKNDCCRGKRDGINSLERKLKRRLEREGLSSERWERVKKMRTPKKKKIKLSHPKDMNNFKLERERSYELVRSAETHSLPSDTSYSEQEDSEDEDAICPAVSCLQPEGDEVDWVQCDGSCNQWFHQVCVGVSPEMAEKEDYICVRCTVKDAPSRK

| IC50 (Jarid1B; [2]) [nM] | IC50 (JMJD3; [2]) [nM] | IC50 (JMJD2C; [2]) [nM] | IC50 [1] [nM] | IC50 (Jarid1B; [3]) [nM] | IC50 (JMJD3; [3]) [nM] | IC50 (JMJD2C; [3]) [nM] | SMILES |
| --- | --- | --- | --- | --- | --- | --- | --- |
| ≤ 100 | 1000 to 10000 | 1000 to 10000 | ≤ 100 |  |  |  | CCCc1ccc(N(C)c2ccc3c(c2)CCN(C)[C@@H]3CNc2cnccc2C(=O)O)cc1 [Example 14B, (S)-3-(((2-methyl-6-(methyl (4-propylphenyl)amino)-1,2,3,4-tetrahydroisoquinolin-1-yl)methyl)amino)isonicotinic acid] |
| ≤ 100 | 1000 to 10000 | 100 to 1000 | ≤ 100 |  |  |  | CCCc1ccc(N(C)c2ccc3c(c2)CN(C)[C@H]3CNc2cnccc2C(=O)O)cc1 [Example 20A, (R)-3-(((2-methyl-5-(methyl (4-propylphenyl)amino)isoindolin-1-yl)methyl)amino)isonicotinic acid] |
| ≤ 100 |  | 1000 to 10000 |  |  |  |  | Cc1cccc(C)c1-c1ccc2c(c1)CCN(C)[C@@H]2CNc1cnccc1C(=O)O [Example 17B, (S)-3-(((6-(2,6-dimethylphenyl)-2-methyl-1,2,3,4-tetrahydroisoquinolin-1-yl)methyl)amino)isonicotinic acid] |
| ≤ 100 |  | 1000 to 10000 |  |  |  |  | Cc1cccc(C)c1-c1ccc2c(c1)CCN(C)[C@H]2CNc1cnccc1C(=O)O [Example 17A, (R)-3-(((6-(2,6-dimethylphenyl)-2-methyl-1,2,3,4-tetrahydroisoquinolin-1-yl)methyl)amino)isonicotinic acid] |
| ≤ 100 | 1000 to 10000 | 1000 to 10000 | 100 to 1000 | ≤ 100 | > 10000 | 1000 to 10000 | CC(C)c1ccc(N(C)c2ccc3c(c2)CN[C@H]3CNc2cnccc2C(=O)O)cc1 [Example 6B, 3-{[((1R)-5-{methyl[4-isopropylphenyl]amino}isoindolinyl)methyl]amino}pyridine-4-carboxylic acid] |
| ≤ 100 | 1000 to 10000 | 100 to 1000 | ≤ 100 |  |  |  | Cc1ccc(N(C)c2ccc3c(c2)CCN(C)[C@H]3CNc2cnccc2C(=O)O)cc1 [Example 11A, (R)-3-(((2-methyl-6-(methyl(p-tolyl)amino)-1,2,3,4-tetrahydroisoquinolin-1-yl)methyl)amino)isonicotinic acid] |
| ≤ 100 | 1000 to 10000 | 1000 to 10000 | 100 to 1000 |  |  |  | CCc1ccccc1-c1ccc2c(c1)CCN[C@H]2CNc1cnccc1C(=O)O [Example 9A, (R)-3-(((6-(2-ethylphenyl)-1,2,3,4-tetrahydroisoquinolin-1-yl)methyl)amino)isonicotinic Acid] |
| ≤ 100 | 1000 to 10000 | 100 to 1000 | ≤ 100 |  |  |  | CCCc1ccc(N(C)c2ccc3c(c2)CN(C)[C@@H]3CNc2cnccc2C(=O)O)cc1 [Example 20B, (S)-3-(((2-methyl-5-(methyl (4-propylphenyl)amino)isoindolin-1-yl)methyl)amino)isonicotinic acid] |
| ≤ 100 | 1000 to 10000 | 100 to 1000 | ≤ 100 |  |  |  | Cc1ccc(N(C)c2ccc3c(c2)CCN(C)[C@@H]3CNc2cnccc2C(=O)O)cc1 [Example 11B, (S)-3-(((2-methyl-6-(methyl(p-tolyl)amino)-1,2,3,4-tetrahydroisoquinolin-1-yl)methyl)amino)isonicotinic acid] |
| ≤ 100 | 1000 to 10000 | 100 to 1000 | ≤ 100 |  |  |  | Cc1ccc(N(C)c2ccc3c(c2)CN(C)[C@@H]3CNc2cnccc2C(=O)O)cc1 [Example 18B, (S)-3-(((2-methyl-5-(methyl(p-tolyl)amino)isoindolin-1-yl)methyl)amino) isonicotinic acid] |
| ≤ 100 | 1000 to 10000 | 100 to 1000 |  |  |  |  | CCc1ccccc1-c1ccc2c(c1)CCN(C)[C@@H]2CNc1cnccc1C(=O)O [Example 15B, (S)-3-(((6-(2-ethylphenyl)-2-methyl-1,2,3,4-tetrahydroisoquinolin-1-yl)methyl)amino)isonicotinic acid] |
| ≤ 100 |  |  | 1000 to 10000 | ≤ 100 |  |  | Cc1ccc(N(C)c2ccc3c(c2)CN[C@H]3CNc2cnccc2C(=O)O)cc1 [Example 5B, 3-[({(1R)-5-[methyl(4-tolyl)amino]isoindolinyl}methyl)amino] pyridine-4-carboxylic acid] |
| ≤ 100 |  | 1000 to 10000 |  |  |  |  | CC(C)c1ccccc1-c1ccc2c(c1)CCN(C)[C@@H]2CNc1cnccc1C(=O)O [Example 16B, (S)-3-(((6-(2-isopropylphenyl)-2-methyl-1,2,3,4-tetrahydroisoquinolin-1-yl)methyl)amino)isonicotinic acid] |
| ≤ 100 |  | 1000 to 10000 |  |  |  |  | CC(C)c1ccccc1-c1ccc2c(c1)CCN(C)[C@H]2CNc1cnccc1C(=O)O [Example 16A, (R)-3-(((6-(2-isopropylphenyl)-2-methyl-1,2,3,4-tetrahydroisoquinolin-1-yl)methyl)amino)isonicotinic acid] |
| ≤ 100 | 1000 to 10000 | 100 to 1000 |  |  |  |  | CCc1ccccc1-c1ccc2c(c1)CCN(C)[C@H]2CNc1cnccc1C(=O)O [Example 15A, (R)-3-(((6-(2-ethylphenyl)-2-methyl-1,2,3,4-tetrahydroisoquinolin-1-yl)methyl)amino)isonicotinic acid] |
| ≤ 100 |  |  | 1000 to 10000 | ≤ 100 |  |  | Cc1ccc(N(C)c2ccc3c(c2)CN[C@@H]3CNc2cnccc2C(=O)O)cc1 [Example 5A, 3-[({(1S)-5-[methyl(4-tolyl)amino]isoindolinyl}methyl)amino]pyridine-4-carboxylic acid] |
| ≤ 100 |  | 100 to 1000 | 1000 to 10000 | ≤ 100 |  | 100 to 1000 | Cc1ccc(N(C)c2ccc3c(c2)CCN[C@H]3CNc2cnccc2C(=O)O)cc1 [Example 1B, 3-[({(1R)-6-[methyl(4-methylphenyl)amino]-1,2,3,4-tetrahydroisoquinolyl}methyl)amino]pyridine-4-carboxylic acid] |
